Our source for the mutagenic call values is PubChem BioAssay AID1259407 (Chemical Carcinogenesis Research Information System (CCRIS), 2018).

SMILES strings stand for the structures. Active and inactive are the calls of the source. No rule for the calls is given here.

This data set relates to CCRIS mutagenicity, Ames/micronucleus/aberration tests. Nature of the data set: CCRIS mutagenicity studies.
Where [1] appears, read: Test System: AMES SALMONELLA TYPHIMURIUM, Strain/Indicator: TA98, Metabolic Activation: NONE, Method: PREINCUBATION
[2] abbreviates: Test System: AMES SALMONELLA TYPHIMURIUM, Strain/Indicator: TA100, Metabolic Activation: NONE, Method: PREINCUBATION

As to `O=C1CCCCCCCCCCCC(=O)OCCO1`, the mutagenic call reads like this: under setting [1], “inactive; negative”; (Test System: AMES SALMONELLA TYPHIMURIUM, Strain/Indicator: TA98, Metabolic Activation: RAT, LIVER, S-9, SODIUM PHENOBARBITAL AND 5,6-BENZOFLAVONE, Method: PREINCUBATION) “inactive; negative”; under setting [2], “inactive; negative”; (Test System: AMES SALMONELLA TYPHIMURIUM, Strain/Indicator: TA100, Metabolic Activation: RAT, LIVER, S-9, SODIUM PHENOBARBITAL AND 5,6-BENZOFLAVONE, Method: PREINCUBATION) “inactive; negative”; (Test System: AMES SALMONELLA TYPHIMURIUM, Strain/Indicator: TA102, Metabolic Activation: NONE, Method: PREINCUBATION) “inactive; negative”; (Test System: AMES SALMONELLA TYPHIMURIUM, Strain/Indicator: TA102, Metabolic Activation: RAT, LIVER, S-9, SODIUM PHENOBARBITAL AND 5,6-BENZOFLAVONE, Method: PREINCUBATION) “inactive; negative”. The mutagenic call reads like this: (Test System: AMES SALMONELLA TYPHIMURIUM, Strain/Indicator: TA104, Metabolic Activation: NONE, Method: PREINCUBATION) “inactive; negative”; (Test System: AMES SALMONELLA TYPHIMURIUM, Strain/Indicator: TA104, Metabolic Activation: RAT, LIVER, S-9, SODIUM PHENOBARBITAL AND 5,6-BENZOFLAVONE, Method: PREINCUBATION) “inactive; negative”; (Test System: AMES SALMONELLA TYPHIMURIUM, Strain/Indicator: TA1535, Metabolic Activation: NONE, Method: PREINCUBATION) “inactive; negative”; (Test System: AMES SALMONELLA TYPHIMURIUM, Strain/Indicator: TA1535, Metabolic Activation: RAT, LIVER, S-9, SODIUM PHENOBARBITAL AND 5,6-BENZOFLAVONE, Method: PREINCUBATION) “inactive; negative”; (Test System: AMES SALMONELLA TYPHIMURIUM, Strain/Indicator: TA1537, Metabolic Activation: NONE, Method: PREINCUBATION) “inactive; negative”; (Test System: AMES SALMONELLA TYPHIMURIUM, Strain/Indicator: TA1537, Metabolic Activation: RAT, LIVER, S-9, SODIUM PHENOBARBITAL AND 5,6-BENZOFLAVONE, Method: PREINCUBATION) “inactive; negative”. For the same compound, the mutagenic call reads like this: (Test System: E. COLI, Strain/Indicator: WP2UVRA/PKM101, Metabolic Activation: NONE, Method: PREINCUBATION) “inactive; negative”; (Test System: E. COLI, Strain/Indicator: WP2UVRA/PKM101, Metabolic Activation: RAT, LIVER, S-9, SODIUM PHENOBARBITAL AND 5,6-BENZOFLAVONE, Method: PREINCUBATION) “inactive; negative”; (Test System: E. COLI, Strain/Indicator: WP2UVRA, Metabolic Activation: NONE, Method: PREINCUBATION) “inactive; negative”; (Test System: E. COLI, Strain/Indicator: WP2UVRA, Metabolic Activation: RAT, LIVER, S-9, SODIUM PHENOBARBITAL AND 5,6-BENZOFLAVONE, Method: PREINCUBATION) “inactive; negative”.
`O=[N+]([O-])c1ccccc1Br`: the mutagenic call under setting [1] is “inactive; negative”; the mutagenic call under setting [2] is “inactive; negative”; the mutagenic call (Test System: AMES SALMONELLA TYPHIMURIUM, Strain/Indicator: TA100, Metabolic Activation: RAT, LIVER, S-9, KANECHLOR 500, Method: PREINCUBATION) is “active; positive”.
On to `O=S(=O)(O)O.[NH-]CC1(C[NH-])CCCCC1.[Pt+2]`, for which the mutagenic call (Test System: CHINESE HAMSTER, Strain/Indicator: V-79/6-THIOGUANINE (HGPRT), Metabolic Activation: NONE, Method: STANDARD PLATE) was “active; positive”.
Regarding `C=C1C[C@@]23CC[C@H]4[C@@](C)(CCC[C@@]4(C)C(=O)O[C@@H]4O[C@H](CO)[C@@H](O)[C@H](O)[C@H]4O)[C@@H]2CC[C@]1(O[C@@H]1O[C@H](CO)[C@@H](O)[C@H](O[C@@H]2O[C@H](CO)[C@@H](O)[C@H](O)[C@H]2O)[C@H]1O[C@@H]1O[C@@H](C)[C@H](O)[C@@H](O)[C@H]1O)C3`, under “Test System: AMES SALMONELLA TYPHIMURIUM, Strain/Indicator: TM677, Metabolic Activation: RAT, LIVER, S-9, AROCLOR 1254, Method: PREINCUBATION”, the mutagenic call was “inactive; negative”.
Take `CN(C)C=O`: the mutagenic call by setting is: (Test System: AMES SALMONELLA TYPHIMURIUM, Strain/Indicator: TA97, Metabolic Activation: NONE, Method: STANDARD PLATE) “inactive; negative”; (Test System: AMES SALMONELLA TYPHIMURIUM, Strain/Indicator: TA97, Metabolic Activation: RAT, LIVER, S-9, AROCLOR 1254, Method: STANDARD PLATE) “inactive; negative”; (Test System: AMES SALMONELLA TYPHIMURIUM, Strain/Indicator: TA98, Metabolic Activation: NONE, Method: STANDARD PLATE) “inactive; negative”; (Test System: AMES SALMONELLA TYPHIMURIUM, Strain/Indicator: TA98, Metabolic Activation: RAT, LIVER, S-9, AROCLOR 1254, Method: STANDARD PLATE) “inactive; negative”; (Test System: AMES SALMONELLA TYPHIMURIUM, Strain/Indicator: TA100, Metabolic Activation: NONE, Method: STANDARD PLATE) “inactive; negative”; (Test System: AMES SALMONELLA TYPHIMURIUM, Strain/Indicator: TA100, Metabolic Activation: RAT, LIVER, S-9, AROCLOR 1254, Method: STANDARD PLATE) “inactive; negative”. Besides, the mutagenic call (Test System: Ames Salmonella typhimurium, Strain/Indicator: TA98, Metabolic Activation: None, Method: Gas exposure method) was “inactive; negative”; the mutagenic call (Test System: Ames Salmonella typhimurium, Strain/Indicator: TA98, Metabolic Activation: Rat, Liver, S9, Sodium phenobarbital and 5,6-benzoflavone (10%), Method: Gas exposure method) was “inactive; negative”; the mutagenic call (Test System: Ames Salmonella typhimurium, Strain/Indicator: TA100, Metabolic Activation: None, Method: Gas exposure method) is “inactive; negative”; the mutagenic call (Test System: Ames Salmonella typhimurium, Strain/Indicator: TA100, Metabolic Activation: Rat, Liver, S9, Sodium phenobarbital and 5,6-benzoflavone (10%), Method: Gas exposure method) was “inactive; negative”; the mutagenic call (Test System: Ames Salmonella typhimurium, Strain/Indicator: TA1535, Metabolic Activation: None, Method: Gas exposure method) is “inactive; negative”; the mutagenic call (Test System: Ames Salmonella typhimurium, Strain/Indicator: TA1535, Metabolic Activation: Rat, Liver, S9, Sodium phenobarbital and 5,6-benzoflavone (10%), Method: Gas exposure method) was “inactive; negative”. Also, the mutagenic call reads like this: (Test System: Ames Salmonella typhimurium, Strain/Indicator: TA1537, Metabolic Activation: None, Method: Gas exposure method) “inactive; negative”; (Test System: Ames Salmonella typhimurium, Strain/Indicator: TA1537, Metabolic Activation: Rat, Liver, S9, Sodium phenobarbital and 5,6-benzoflavone (10%), Method: Gas exposure method) “inactive; negative”; (Test System: E. coli, Strain/Indicator: WP2uvrA/pKM101, Metabolic Activation: None, Method: Gas exposure method) “inactive; negative”; (Test System: E. coli, Strain/Indicator: WP2uvrA/pKM101, Metabolic Activation: Rat, Liver, S9, Sodium phenobarbital and 5,6-benzoflavone (10%), Method: Gas exposure method) “inactive; negative”; (Test System: MOUSE LYMPHOMA, Strain/Indicator: L5178Y (TK+/TK-), Metabolic Activation: NONE, Method: SUSPENSION/PLATE) “inactive; negative”; (Test System: MOUSE LYMPHOMA, Strain/Indicator: L5178Y (TK+/TK-), Metabolic Activation: RAT, LIVER, S-9, AROCLOR 1254, Method: SUSPENSION/PLATE) “inactive; negative”. In addition, the mutagenic call (Test System: MOUSE LYMPHOMA, Strain/Indicator: L5178Y (TK+/TK-), Metabolic Activation: RAT, LIVER, S-9, Method: SUSPENSION/PLATE) is “inactive; negative”.
